In patent US20250313569A1, “Pharmaceutical Compounds And Compositions As Modulators Of MAS-Related G-Protein Receptor X2” (Enanta Pharmaceuticals, Inc., priority 2024, published 2025):

Target: T1, MRGPRX2 LAD2 (Homo sapiens, UniProt Q96LB1)
T1 construct: host or cells: LAD2 human mast cells
T1 sequence (Q96LB1 1-330): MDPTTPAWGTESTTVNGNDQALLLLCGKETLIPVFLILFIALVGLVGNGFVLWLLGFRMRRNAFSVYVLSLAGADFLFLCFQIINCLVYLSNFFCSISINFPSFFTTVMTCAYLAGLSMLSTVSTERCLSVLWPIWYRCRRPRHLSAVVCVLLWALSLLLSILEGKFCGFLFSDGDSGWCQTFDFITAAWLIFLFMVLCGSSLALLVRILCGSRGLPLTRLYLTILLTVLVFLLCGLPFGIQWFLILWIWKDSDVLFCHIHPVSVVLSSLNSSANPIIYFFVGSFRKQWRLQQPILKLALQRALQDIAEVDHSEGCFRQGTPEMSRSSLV
Assay: LAD2 β-hexosaminidase release assay (degranulation), Cortistatin-14 at EC75
Type: cell-based
Conditions: LAD2 cells; 1 hour compound incubation, Cortistatin-14 at EC75 for 30 minutes; percent degranulation (β-hexosaminidase)
Method: LAD2 cells obtained from the NIH were cultured in StemPro34 (Gibco) serum-free media supplemented with GlutaMax, penicillin and streptomycin, and 100 ng/mL SCF (Invitrogen). Cells were maintained in a 37° C., 5% CO2 humidified incubator at a concentration of 2-5E5 cells/mL, with hemidepletion once a week.
One day prior to the assay, cells were starved of SCF at a concentration of 2.3E5 cells/mL. On the day of the assay cells were washed twice in Tyrode's Buffer containing 0.04% BSA (assay buffer) and plated in a 96 well-v-bottom assay plate at 20,000 cells per well in 80 μL of assay buffer. Compounds were solubilized at 10 mM DMSO and added as a 10-fold overconcentrated 8-point curve in assay buffer in a volume of 10 μL using the JANUS liquid handler. Assay plates were incubated for 1 hour at 37° C. Cortistatin-14 was diluted in assay buffer to […] its predetermined EC75 and added to the assay plates in a volume of 10 μL. Assay plates were incubated at 37° C. for 30 minutes. After incubation, cells were pelleted and 50 μL of supernatant from each well was transferred to a 96 well flat bottom plate containing 100 μL of substrate solution (3.5 mg/mL p-Nitrophenyl-N-acetyl-β-D-glucosaminide (Sigma Aldrich) in 40 mM Citrate Buffer (Thermo Fisher)). The remaining cell pellets were lysed with 150 μL of 0.1% Triton-X-100 and mixed thoroughly. 50 μL of lysate was transferred to a 96-well flat bottom plate containing 100 μL of substrate solution. Plates with supernatants and lysates were incubated at 37° C. for 90 minutes prior to addition of 50 μL of 400 mM Glycine buffer (pH 10.7). The plates were read on a Perkin Elmer Envision plate reader at an Abs of 405 nanometers. Percent degranulation was calculated and Xlfit was used to calculate an EC50 value for each compound using a 4-parameter logistic curve fitting model. EC50 ranges are reported as follows: A<100 nM; B 0.1-1 μM; C>1 μM.

Row | Structure (SMILES) | EC50 [nM]
1 | C[C@@H]1CCCN1C(=O)N[C@H]1C[C@@H](Nc2cc(C(F)(F)F)nc3ccc(Cl)cc23)CN(C(=O)C(F)F)C1 [Example 126] | < 100
2 | CC(=O)N1C[C@@H](NC(=O)c2ccc3cc[nH]c3c2)C[C@@H](Nc2cc(C(F)(F)F)nc3ccc(Cl)cc23)C1 [Example 112] | < 100
3 | CC(C)(O)Cn1cc(C(=O)N[C@H]2C[C@@H](Nc3c(F)c(C(F)(F)F)nc4ccc(Cl)cc34)CN(C(=O)C(C)(C)F)C2)c(Cl)n1 [Example 83] | < 100
4 | CC(C)(O)Cn1cc(C(=O)N[C@H]2C[C@@H](Nc3cc(C(F)(F)F)nc4ccc(Cl)cc34)CN(C(=O)C3(C(F)(F)F)CC3)C2)c(Cl)n1 [Example 82] | < 100
5 | CC(=O)N1C[C@@H](NC(=O)N2CCc3cn(C)nc3C2)C[C@@H](Nc2cc(C(F)(F)F)nc3ccc(Cl)cc23)C1 [Example 129] | < 100
6 | CC(C)(O)Cn1cc(C(=O)N[C@H]2C[C@@H](Nc3cc(C(F)(F)F)nc4ccc(Cl)cc34)CN(C(=O)COC(F)(F)F)C2)c(Cl)n1 [Example 80] | < 100
7 | O=C(N[C@H]1C[C@@H](Nc2cc(C(F)(F)F)nc3ccc(Cl)cc23)CN(C(=O)C(F)F)C1)c1cn(CC2(O)CCC2)nc1Cl [Example 119] | < 100
8 | CC(C)(O)Cn1cc(C(=O)N[C@H]2C[C@@H](Nc3cc(C(F)(F)F)nc4ccc(Cl)cc34)CN(C3CC(F)(F)C3)C2)c(Cl)n1 [Example 76] | 100 to 1000
9 | O=C(N[C@H]1C[C@@H](Nc2cc(C(F)(F)F)nc3ccc(Cl)cc23)CN(C(=O)C(F)F)C1)c1cn(C2CCC(F)(F)CC2)nc1Cl [Example 121] | < 100
10 | CC(C)(O)Cn1cc(C(=O)N[C@H]2C[C@@H](Nc3cc(C(F)(F)F)nc4ccc(Cl)cc34)CN(C(=O)OCC(F)(F)F)C2)c(Cl)n1 [Example 84] | < 100
11 | CC(C)(O)C(O)Cn1cc(C(=O)N[C@H]2C[C@@H](Nc3cc(C(F)(F)F)nc4ccc(Cl)cc34)CN(C(=O)C(F)F)C2)c(Cl)n1 (some centres unmarked) [Example 122] | < 100
12 | CC(=O)N1C[C@@H](NC(=O)c2cn(CS(C)(=O)=O)nc2Cl)C[C@@H](Nc2cc(C(F)(F)F)nc3ccc(Cl)cc23)C1 [Example 101] | < 100
13 | CC(=O)N1C[C@@H](NC(=O)c2c[nH]c3cccnc23)C[C@@H](Nc2cc(C(F)(F)F)nc3ccc(Cl)cc23)C1 [Example 97] | < 100
14 | CC(=O)N1C[C@@H](NC(=O)c2cn(CC(C)(C)O)nc2C(F)F)C[C@@H](Nc2cc(C(F)(F)F)nc3ccc(Cl)cc23)C1 [Example 103] | < 100
15 | COCC(F)(F)C(=O)N1C[C@@H](NC(=O)c2cn(CC(C)(C)O)nc2Cl)C[C@@H](Nc2cc(C(F)(F)F)nc3ccc(Cl)cc23)C1 [Example 79] | < 100

Continued, values first:

Row | EC50 [nM] | Structure (SMILES)
16 | < 100 | CC(=O)N1C[C@@H](NC(=O)c2cn(CC(F)(F)F)nc2C(F)(F)F)C[C@@H](Nc2cc(C(F)(F)F)nc3ccc(Cl)cc23)C1 [Example 96]
17 | < 100 | CC(=O)N1C[C@@H](NC(=O)c2cn(CC(F)(F)F)nc2C2CC2)C[C@@H](Nc2cc(C(F)(F)F)nc3c(F)cc(Cl)cc23)C1 [Example 139]
18 | < 100 | CC(=O)N1C[C@@H](NC(=O)c2cn(CC(C)(C)O)nc2C(F)(F)F)C[C@@H](Nc2cc(C(F)(F)F)nc3ccc(Cl)cc23)C1 [Example 95]
19 | < 100 | CC(=O)N1C[C@@H](NC(=O)c2cn(CC(F)F)nc2C2CC2)C[C@@H](Nc2cc(C(F)(F)F)nc3ccc(Cl)cc23)C1 [Example 110]
20 | < 100 | O=C(N[C@H]1C[C@@H](Nc2cc(C(F)(F)F)nc3ccc(Cl)cc23)CN(c2ccccn2)C1)c1cn(CC(F)(F)F)nc1C1CC1 [Example 92]
21 | < 100 | O=C(N[C@H]1C[C@@H](Nc2cc(C(F)(F)F)nc3ccc(Cl)cc23)CN(C(=O)C(F)F)C1)c1cn(CC(F)(F)F)nc1C1CC1 [Example 90]
22 | < 100 | CC(=O)N1C[C@@H](NC(=O)c2cn(CC(F)(F)F)nc2C2CC2)C[C@@H](Nc2cc(C(F)(F)F)nc3ccc(OC(F)(F)F)cc23)C1 [Example 132]
23 | < 100 | CC(=O)N1C[C@@H](NC(=O)c2cn(CC(F)(F)F)nc2C2CC2)C[C@@H](Nc2cc(C(F)(F)F)nc3ccc(Cl)cc23)C1 [Example 109]
